According to a melting point compilation (Tetko et al.; mined from patent text by program, amines drawn as free bases though some values may be those of a salt):

Structure (SMILES) | melting point
CN1CCC(c2c[nH]c3ccc(NC(=O)c4ccc(F)s4)nc23)CC1 | 244 to 245 °C
O=C(CC(=O)c1ccc(C(F)(F)F)cc1[N+](=O)[O-])c1ccc([N+](=O)[O-])cc1 | 139 to 140 °C
CCC(=O)NC1CCc2cc(OC)ccc2C1 (stereo not drawn) | 125 °C
CCOC(=O)c1ncc2[nH]c3ccc(Br)cc3c2n1 | 286 to 290 °C
O=C(CCCCCNC(=O)OCc1ccccc1)N[C@@H](Cc1ccccc1)C(=O)O | 119 to 120 °C
O=S1(=O)CCC(NCCNC2CCS(=O)(=O)C2)C1 (stereo not drawn) | 60 to 85 °C
CC(C)C[C@H](CC(=O)NC1CCCCC1)C(=O)OCc1ccccc1 | 99 to 102 °C
O=C1CCC(c2ccc3c(c2)CC(NC(=O)Nc2ccccc2)C3)=NN1 (stereo not drawn) | 249 to 251 °C
CCOC(=O)CC(=NNc1ccc(C(=O)O)cc1C)C(C)=O | 161 to 162 °C
COc1ccc2cc([C@H](C)C(=O)OCC(=O)N3CCC(CO[N+](=O)[O-])CC3)ccc2c1 | 94 to 95 °C
CN(C)CCCC1(O)c2ccccc2OC12CCCCCC2 (stereo not drawn) | 96 to 98.5 °C
CCCCCCCCc1ccc(CCC(CO)(CO)NC(C)=O)cc1 | 66 to 68 °C
N#Cc1ccc2c(c1)C(O)CCCO2 (stereo not drawn) | 85 to 86.5 °C
CC(=O)c1cc2c(s1)C(=O)c1ccsc1C2=O | 223 to 225 °C
CCOC(=O)c1ccc(CN2CCC(NC(=O)OC(C)(C)C)CC2)cc1 | 74 to 76 °C
Nc1ncnc2nsnc12 | 247 to 249 °C
CC(=O)N1CCC(CCC(=O)c2ccc3c4c2CCCC4CN3C(C)=O)CC1 (stereo not drawn) | 130 to 132 °C
Cc1cc(C)cc(NS(=O)(=O)c2ccc(N3CCNC3=O)cc2)c1 | 216 to 218 °C
COc1cc(-c2ncc(C(F)(F)F)cc2Cl)ccc1C#N | 135 to 137 °C
CC(C)C(=O)OC1(C(=O)CO)CCC2C3CC(C)C4=CC(=O)CCC4(C)C3C(O)CC21C (stereo not drawn) | 191 °C
O=c1cc(O)nc2sc(CCC3CCCCC3)nn12 | 215 to 219 °C

Structure (SMILES) | melting point
COc1ccc2c3cc(C(=O)N4CCCCC4)ccc3n(CC3CCCCC3)c2c1 | 91 to 92 °C
CC(C)(C)c1cc(C(=O)NCCc2ccc([N+](=O)[O-])cc2)cc(C(C)(C)C)c1O | 204 to 206 °C
C#CCCn1ncc2c(N)c(C(=O)OCC)c(C)nc21 | 101 to 103 °C
CN(CCCCCC(=O)O)c1ccc(Br)cc1C=O | 95 to 96 °C
COC(=O)OCc1cnc(C)c(OC(=O)OC)c1 | 65 °C
CSC(=O)c1c(C(F)F)nc(C(F)(F)F)c(C(=O)SC)c1N | 160 to 161 °C
CCc1cc(OC)c(-c2nc(N)sc2CCC2CCCCC2)cc1OC | 88 °C
CON(C(=O)c1cn(C)nc1C(F)F)C(C)c1cccc(I)c1 (stereo not drawn) | 136 to 138 °C
c1cc2c(cc1-c1nnc(SCC3CC3)o1)CCO2 | 57 to 58 °C
N#Cc1c(C(=O)O)nn(-c2ccc(Cl)cc2Cl)c1-c1ccc(Cl)cc1 | 132 to 137 °C
O=C1OCCC1Oc1cc(F)ccc1[N+](=O)[O-] (stereo not drawn) | 98 to 100 °C
COC(=O)C(=O)c1cc2c3c(c1)CCN3CCC2 | 102 to 105 °C
CC(C)C(=O)N[C@@H](CSC(=O)C(C)C)C(=O)NCCSC(=O)C(C)(C)C | 105 to 107 °C
CCCCCCCCNC(=O)C(C)=Cc1cccc(N2CC(C(=O)O)CC2=O)c1 (stereo not drawn) | 120 to 121 °C
N#Cc1ccc(N(Cc2ccc(OS(N)(=O)=O)cc2)n2cnnc2)cc1-c1ccco1 | 177 to 178 °C
COc1ccc2cccc3c2c1C(CC(=O)O)CC3 (stereo not drawn) | 147 °C
CN(C)c1nc(Cl)nc(Cl)n1 | 123 to 124 °C
COC(=O)c1ccc(CC(=O)c2cc(OC)c3c(c2)C(C)(C)CCC3(C)C)cc1 | 143 to 144 °C
CC(=O)Nc1cccc2c1C(=O)c1c-2n[nH]c1C(C)C | > 250 °C
CC(=O)N1CC=C(C#Cc2ccc3c(c2)NC(=O)CC(c2cccc(C#N)c2)=N3)CC1 | 203 °C

Continued, values first:

melting point | Structure (SMILES)
180 to 181 °C | COc1ccc2c(c1)C(C(=O)Nc1c(C(C)C)cccc1C(C)C)c1cccnc1CO2 (stereo not drawn)
55 °C | OCc1cccc(-n2cccc2)n1
188 °C | CCCC(=O)NS(=O)(=O)c1cccc(-c2cccc(-c3cc(-c4ccc(C(F)(F)F)cc4)cc(C)n3)n2)c1
101 to 102 °C | CCOC(=O)Cc1cccc(C(=O)c2ccc(Cl)cc2)c1N
89 to 91 °C | COc1cccc(CC(CO)NCCC(c2ccccc2)c2ccccc2)c1 (stereo not drawn)
130 to 140 °C | Cc1c(CC2CCc3cc4ccccc4n3C2=O)ncn1Cc1ccccc1 (stereo not drawn)
133 to 135 °C | CCCCc1nc2c(N)nc3ccccc3c2n1CCOCc1ccccc1
170 to 173 °C | Fc1cc(CBr)ccc1-c1nc2ccccc2o1
128 to 130 °C | CCC(O)(c1ccccc1)c1ccc(C(=O)O)cc1 (stereo not drawn)
118 to 120 °C | O=C(Nc1ccc(Cl)nc1)c1ccccc1
107 to 112 °C | COCc1c(C=NO)nc(Oc2nccc3ccccc23)c2[nH]c3ccccc3c12
149 to 150 °C | COc1cc(COc2nn(-c3ccccc3)cc2C=O)ccc1OCc1nc(N2CCOCC2)sc1C
86 to 87 °C | CCOC(=O)Cc1c(C)nn(-c2ccccc2)c1C
152 to 154 °C | CC(C)(O)COc1c(-c2ccc(S(C)(=O)=O)cc2)cnn(-c2ccc(F)cc2)c1=O
116 to 118 °C | Fc1ccc(C(CCCN2CCN(c3cc4ccccc4cn3)CC2)c2ccc(F)cc2)cc1
208 to 209 °C | O=C(O)Cc1nc(-c2ccc(F)cc2)oc1-c1cccs1

melting point | Structure (SMILES)
249 °C | Cc1cc(-c2ncn3c(C(F)(F)F)cc(-c4ccc(Br)cc4)nc23)ccn1
135 to 136 °C | CCOC(=O)C1=C(C)Nc2ccnc(OC(C)C)c2C1c1ccccc1Cl (stereo not drawn)
166 to 168 °C | N#CCc1ccc2oc([N+](=O)[O-])c(-c3ccccc3)c2c1
163 to 166 °C | O=Cc1coc2ccc(OCc3ccccc3)cc2c1=O
135 to 137 °C | Cc1ccccc1-n1ccc2c(NCCCO)nc3c(C)cccc3c21
229 °C | Cc1ccc(-c2nc(-c3nn(Cc4ccccc4F)c4ncccc34)ncc2C#N)cc1
231 to 233 °C | Cn1nc(-c2nc(S(C)(=O)=O)c(N)nc2-c2ccccc2)ccc1=O
259 to 263 °C | Cn1cc(-c2ccc(Br)cc2)c(=O)c(-c2cccc(C(=O)O)c2)c1
> 310 °C | N#Cc1cnc2c(oc3ccccc32)c1O
239 to 240 °C | O=C(Nc1nnco1)C1c2ccccc2Oc2ccccc21
80 to 89 °C | N#Cc1ccc(CNC(=O)C2Cc3ccccc3N2S(=O)(=O)c2ccc(-c3cccc(C(F)(F)F)c3)cc2)cc1 (stereo not drawn)
162 °C | COC(=O)c1cc(O)c(N=Nc2ccccc2)c(OC(C)=O)c1
> 300 °C | CNC(=O)Nc1cccc2c1C(=O)c1c-2n[nH]c1-c1ccc(OC)cc1
144 to 145 °C | COC(=O)C(=O)c1ccc(OCCOc2ccc3ccncc3c2)cc1
164 to 165 °C | OCCCNC1=Nc2ccccc2C1(O)c1cccc(Cl)c1 (stereo not drawn)
243 °C | CNC(=O)CC1CCN(Cc2cnc3cc(NC(=O)c4ccc(-c5ccc(F)cc5)cc4)c(C)cc3c2)CC1
